Data taken from patent publication US20060153844A1, “Methods to trigger, maintain and manipulate immune responses by targeted administration of biological response modifiers into lymphoid organs” (priority 2004, published 2006).

Assays:
[1] = tested on: p33-specific CD8+ T cells; test: p33-specific CD8+ T cell function, intracellular interferon-γ by FACS, Imiquimod as adjuvant; assay type: in vivo, C57BL/6 mice; conditions: 10 μg p33, day 8
Experimental: C57BL/6 mice were immunized with the immunodominant MHC class I binding epitope of the lymphocytic choriomeninigitis virus glycoprotein, p33 (SEQ. ID. No. 11). On day 8 after immunization mice were bled to analyze p33-specific CD8+ T cell function by FACS staining of CD8, CD44 and intracellular interferon-γ production after a 4-hour in vitro stimulation with p33. All groups of mice received the same dose of 10 μg p33. The adjuvant Imiquimod, however, was administered by different routes and in different doses. Mice were either injected intralymphatically with 250 μg or 25 μg of Imiquimod, or they were injected subcutaneously with 250 μg or 25 μg of Imiquimod. Control mice were immunized with p33, but received no Imiquimod.

[2] = including fatigue, malaise, fever, headache, and lymphocytopenia; cited from earlier work
IFN-gamma = IFN-gamma in supernatants of restimulated splenocytes after s.c. peptide in IFA; assay type: in vivo, mice; conditions: subcutaneous immunization in combination with IFA; compared to non-self PSMA 730-739
Experimental: Alternatively, mice were immunized with the PSMA 288-297 or PSMA 730-739 epitope peptide in IFA and peptide by subcutaneous injection (5 μg peptide in 100 μl, twice, at day 0 and 7). One week after the last administration, splenocytes were stimulated ex vivo with 5 μg (FIG. 7, top panel), 10 μg (FIG. 7, middle panel) and 20 μg/ml (FIG. 7, bottom panel) of peptide for 3 days and the IFN-gamma concentration in cell supernatants measured by ELISA.

Compound: CC(C)Cn1cnc2c(N)nc3ccccc3c21 [Imiquimod, 1-(2-methylpropyl)-1H-imidazol [4,5-c]quinolin-4-amine]
- induction of p33-specific CD8+ T cells ([1]; 250 μg Imiquimod intralymphatically): enhanced induction of p33-specific CD8+ T cells
- induction of p33-specific CD8+ T cells ([1]; 250 μg Imiquimod subcutaneous): not after subcutaneous administration
- toxicity when systemically administered [2]: significant toxicity when systemically administered

Compound: PSMA 288-297: SEQ. ID. No. 5, self epitope conserved between mouse and human (GLPSIPVHPI; Synthetically prepared peptide sequence)
- immune responsiveness (IFN-gamma) (IFN-gamma): decreased immune responsiveness
